Results published in PMC6530601, “Rapid and Scalable Plant-Based Production of a Potent Plasmin Inhibitor Peptide” (Frontiers in Plant Science, 2019).
Bridge positions count the residues as written; N and C are the ends. Peptide text beside a SMILES is read from it.

Columns and labels:
native human plasmin [1] = target: T1, native human plasmin (Homo sapiens, UniProt P00747); test: Plasmin inhibitory assay (chromogenic peptide substrate); format: biochemical; details: plant-derived peptide; 1 nM native human plasmin, 30 min pre-incubation, 0.1 M Tris-HCl, pH 8.0, 0.1 M NaCl, 0.005% Triton X-100; 100 μM Acetyl-Arg-Met(sulphone)-Tyr-Arg-pNA, 405 nm over 7 min; Morrison equation; n = 3 independent assays; read-out: inhibition constant (Ki)
T1 construct: incubated with 1 nM native human plasmin (Sigma-Aldrich); purchased Sigma-Aldrich
Method: (§1) A serial dilution of plant-derived [T4Y,I7R]SFTI-1 was incubated with 1 nM native human plasmin (Sigma-Aldrich) for 30 min in assay buffer (0.1 M Tris-HCl, pH 8.0, 0.1 M NaCl, and 0.005% Triton X-100) in low binding 96-well plates (Corning). […] The inhibition constant (Ki) was determined from three independent assays by the Morrison equation and non-linear regression using GraphPad Prism 6.

native human plasmin [2] = target: T1, native human plasmin; details: substrate of plasmin assay; determination not described, no reference given; cited from earlier work
Method: as §1, with “non-lin ...” for “non-linear regression using GraphPad Prism 6.”

T1 sequence (P00747 581-810 limits assumed): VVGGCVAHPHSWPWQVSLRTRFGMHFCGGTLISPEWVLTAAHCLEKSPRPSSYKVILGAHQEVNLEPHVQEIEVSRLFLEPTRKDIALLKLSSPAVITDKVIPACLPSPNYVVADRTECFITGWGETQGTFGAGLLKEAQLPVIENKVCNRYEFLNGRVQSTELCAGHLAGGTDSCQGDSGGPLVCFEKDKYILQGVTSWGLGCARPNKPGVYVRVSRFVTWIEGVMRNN
T1 sequence (P00747 97-580 partner limits assumed): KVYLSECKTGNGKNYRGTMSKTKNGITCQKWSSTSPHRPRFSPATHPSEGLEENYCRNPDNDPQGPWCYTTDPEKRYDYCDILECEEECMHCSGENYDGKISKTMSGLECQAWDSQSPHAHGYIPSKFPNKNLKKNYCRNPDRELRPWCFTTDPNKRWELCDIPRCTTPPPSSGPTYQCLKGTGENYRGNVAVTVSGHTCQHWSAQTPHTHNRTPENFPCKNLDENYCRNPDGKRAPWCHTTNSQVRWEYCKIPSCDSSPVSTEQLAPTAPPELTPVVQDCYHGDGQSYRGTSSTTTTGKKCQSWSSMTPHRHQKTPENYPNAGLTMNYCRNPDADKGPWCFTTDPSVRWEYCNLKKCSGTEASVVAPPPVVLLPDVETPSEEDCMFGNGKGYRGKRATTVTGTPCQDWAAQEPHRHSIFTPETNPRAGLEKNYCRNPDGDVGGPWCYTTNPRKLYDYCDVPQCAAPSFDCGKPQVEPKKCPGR

Ki (native human plasmin [1]) | Compound | Km (native human plasmin [2])
25 ± 4 pM | CC[C@H](C)[C@@H]1NC(=O)[C@@H]2CCCN2C(=O)[C@@H]2CCCN2C(=O)[C@H](CCCNC(=N)N)NC(=O)[C@H](CO)NC(=O)[C@H](CCCCN)NC(=O)[C@H](Cc2ccc(O)cc2)NC(=O)[C@@H]2CSSC[C@H](NC1=O)C(=O)N[C@@H](Cc1ccccc1)C(=O)N1CCC[C@H]1C(=O)N[C@@H](CC(=O)O)C(=O)NCC(=O)N[C@@H](CCCNC(=N)N)C(=O)N2 [[T4Y,I7R]SFTI-1] (cyclo(CFPDGRCYKSRPPI); disulfide 1-7) | 
 | Acetyl-Arg-Met(sulphone)-Tyr-Arg-pNA [colorimetric peptide substrate of plasmin] | 23.5 µM
